Laboratory results from patent US11879012B2, “Method of modulating cell proliferation” (METRO NORTH HOSPITAL AND HEALTH SERVICE, priority 2018, dated 2024).

Tested on: corneal-limbal epithelial cells
Experiment: MTT conversion / proliferation of primary corneal-limbal epithelial cells
Type: cell-based, human
Conditions: 40 μM Y27632 alone; FIG. 5D
Excerpt: Cultures of non-transformed human corneal epithelial cells were established from either enzymatically-dissociated sample of corneal-scleral tissue or from pieces of intact corneal limbus seeded into culture dishes (i.e., explant method). In either case, corneal tissue from cadaveric donors was used. Each tissue sample was acquired with consent and ethics approval our HREC Approval No. 0800000807) in the form of either surgical cut-offs or intact corneas that had been rejected by the eye bank (e.g., poor endothelial cell density).
For dissociated cultures, washed tissue samples were cut into quarters before being incubated for 1 hour at 37° C. in 0.25% (w/v) Dispase solution (Life Technologies). Epithelial tissue was subsequently harvested from the limbus and peripheral cornea by scraping with a pipette tip, then dissociated by digestion in 0.05% Trypsin/0.02% EDTA (Sigma) for 5 minutes at 37° C. The resulting cell suspension was washed and resuspended in complete culture medium. […]
To initiate cultures from whole tissue, each well of a 6-well culture plate (approximately 6×10 cm^2) was initially filled with 2 mL, of 100% FBS and incubated for at least 30 minutes at 37° C. […] Over subsequent days, each p0 culture was routinely monitored for evidence of epithelial outgrowth until a confluent sheet measuring approximately 2-3 cm^2 had been achieved (approximately 1-2 weeks). […]

C[C@@H](N)[C@H]1CC[C@H](C(=O)Nc2ccncc2)CC1 [Y27632]
MTT conversion (cell proliferation): dose-dependent increase in MTT conversion
